From patent US9757378B2, “Methods to modulate acute myeloid leukemia stem/progenitor cell expansion and/or differentiation” (UNIVERSITE DE MONTREAL, priority 2013, dated 2017) come the findings set out here.

Series [1] concerns primary human AML cells. Put plainly: Primary screen: differentiation of primary human AML cells in vitro (CD34/CD15, HTS flow cytometry). Conditions: for percent gated cells (viability): 2 μM (commercial libraries) or 1 μg/ml (IRIC); for % increase CD34+ (%) / % increase CD34+ (cell counts) / % increase CD34+CD15− (cell counts): compared to DMSO; for % increase CD34+CD15− (%): compared to DMSO ((compound − DMSO)/DMSO*100); for CD34+CD15− cell counts compared to DMSO: in words. For orientation: A flow cytometer gives signals particle by particle.
Description: AML cells were thawed in 37° C. water bath and 1:10 diluted in prewarmed Iscove's modified Dulbecco's medium (IMDM) containing 20% FBS and DNase 100 μg/ml. […] When compounds were added to the culture medium, final DMSO concentrations were 0.1% in all in vitro experiments and 0.01% when cultured cells were transplanted into NSG-mice.
Compounds were tested at 2 μM (commercial libraries) or 1 μg/ml (Medicinal Chemistry Facility, IRIC). […] For validation experiments AML cells were grown in 384-well plates with 3-8 replicates per condition.
Flow cytometry was performed on an LSR™ II cytometer equipped with an HTS-device (BD Bioscience, Primary and Secondary screens and in vitro validation experiments) or on a BD Canto™ II cytometer (BD Bioscience, Xenotransplantation and CellTrace Violet™ experiments). Cells were stained for 30 minutes at 4° C. protected from light if not otherwise indicated (CellTrace Violet™ staining). […] CD34 intensities in flow cytometry plots were set at high levels on day 0 to allow tracing of non-predictable decreases of intensities during 7 days in culture.

In series [2] the test system is primary human AML cells. The series can be described thus: Secondary screen: dose response, five serial dilutions (CD34/CD15 flow cytometry). More on the design: key to 2ndary screen criteria fulfilled: 0 = no; 1 = yes. The note with it: ≧50% increase CD34+CD15− (%) and cell counts and ≧50% gated cells in at least one dose. The format is cell-based.
Description: In the primary screen cells were plated in transparent 384-wellplates (Greiner, 781182) at a density of 5,000 cells in 50 μl final volume per well. Compounds were tested at 2 μM (commercial libraries) or 1 μg/ml (Medicinal Chemistry Facility, IRIC). […] For validation experiments AML cells were grown in 384-well plates with 3-8 replicates per condition.
Flow cytometry was performed on an LSR™ II cytometer equipped with an HTS-device (BD Bioscience, Primary and Secondary screens and in vitro validation experiments) or on a BD Canto™ II cytometer (BD Bioscience, Xenotransplantation and CellTrace Violet™ experiments). Cells were stained for 30 minutes at 4° C. protected from light if not otherwise indicated (CellTrace Violet™ staining). The following flow cytometry-antibodies were used: CD45 Pacific Blue (BioLegend 304029), CD33 PE (BD Bioscience 555450), CD34 APC (BD Bioscience 555824), CD3 FITC (BD Bioscience 555332), CD19 PE-Cy7 (BD Bioscience 557835), CD15 PE (BD Bioscience 555401), and anti-mouse CD45.1 APC-efluor 730 (eBioscience 47-0453-82). CD34 intensities in flow cytometry plots were set at high levels on day 0 to allow tracing of non-predictable decreases of intensities during 7 days in culture.

Take `C[C@@H]1Cc2c(Cl)cc(C(=O)N[C@@H](Cc3ccccc3)C(=O)O)c(O)c2C(=O)O1` [UM0119328, Ochratoxin A]: in the series on primary human AML cells [1], the “percent gated cells (viability)” value worked out at 82.10%, the “% increase CD34+ (%)” value came to 14.82%, the “% increase CD34+ (cell counts)” value came out at 1.28% and the “% increase CD34+CD15− (cell counts)” value is 34.37%. Further, the “% increase CD34+CD15− (%)” value in the series on primary human AML cells [1] is reported as 52.56%. In the series with primary human AML cells [2], the “2ndary screen criteria fulfilled” value came to 0.

For `COc1cc(-c2oc3cc(O)cc(O)c3c(=O)c2O)ccc1O` [UM0119319, Isorhamnetine], in the series with primary human AML cells [1], the “% increase CD34+ (%)” value worked out at 37.41%, the “% increase CD34+ (cell counts)” value was 28.67%, the “% increase CD34+CD15− (cell counts)” value is 62.94% and the “% increase CD34+CD15− (%)” value was 74.28%. For the same compound, the “2ndary screen criteria fulfilled” value with primary human AML cells [2] turned out to be 0.

With `CO[C@@H]1[C@H](OC(=O)/C=C/C=C/C=C/C=C/C(=O)O)CC[C@]2(CO2)[C@H]1[C@@]1(C)O[C@@H]1CC=C(C)C` [UM0121512, Fumagillin], in the series with primary human AML cells [1], the “percent gated cells (viability)” value was 78.60%, the “% increase CD34+ (%)” value came out at 31.22%, the “% increase CD34+ (cell counts)” value is −54.59% and the “% increase CD34+CD15− (cell counts)” value is listed as −46.09%. Besides, in the series on primary human AML cells [1], the “% increase CD34+CD15− (%)” value is recorded as 55.51%.

As for `CC(C)=CCOc1cc2oc(=O)ccc2cc1O` [UM0120947, Prenyletin], in the series with primary human AML cells [1], the “percent gated cells (viability)” value was found to be 81.10%, the “% increase CD34+ (%)” value turned out to be 18.10%, the “% increase CD34+ (cell counts)” value was found to be 15.58% and the “% increase CD34+CD15− (cell counts)” value stood at 56.71%. In addition, the “% increase CD34+CD15− (%)” value with primary human AML cells [1] is 60.33%.

Turning to `CC(C)Oc1ccc2c(=O)c(-c3ccccc3)coc2c1` [UM0120559, Ipriflavone], in the series with primary human AML cells [1], the “% increase CD34+ (%)” value was 27.34%, the “% increase CD34+ (cell counts)” value is 39.89%, the “% increase CD34+CD15− (cell counts)” value is reported as 54.50% and the “% increase CD34+CD15− (%)” value turned out to be 40.47%.

`COc1ccc(-c2cc(=O)c3c(OC(C)=O)cc(OC(C)=O)cc3o2)cc1` [UM0120987, Acacetin diacetate]: in the series with primary human AML cells [1], the “percent gated cells (viability)” value turned out to be 81.60%, the “% increase CD34+ (%)” value came out at 27.58%, the “% increase CD34+ (cell counts)” value turned out to be 22.16% and the “% increase CD34+CD15− (cell counts)” value was found to be 53.47%. In addition, the “% increase CD34+CD15− (%)” value in the series on primary human AML cells [1] amounted to 59.88%.

With `CC(=O)c1ccc2c(c1)N(CCCN(C)C)c1ccccc1S2.O=C(O)/C=C\C(=O)O` [UM0118758, Acetopromazine maleate salt], in the series with primary human AML cells [1], the “% increase CD34+ (%)” value is −0.82%, the “% increase CD34+ (cell counts)” value is listed as −11.68%, the “% increase CD34+CD15− (cell counts)” value turned out to be 41.15% and the “% increase CD34+CD15− (%)” value is on record as 57.85%.

For the compound `COc1cc(OC)c2c(=O)cc(-c3ccccc3)oc2c1` [UM0121173, 5,7-Dimethoxyflavone], in the series with primary human AML cells [1], the “percent gated cells (viability)” value came out at 82.00%, the “% increase CD34+ (%)” value came out at 29.43%, the “% increase CD34+ (cell counts)” value is 34.90% and the “% increase CD34+CD15− (cell counts)” value is listed as 53.11%. Further, in the series on primary human AML cells [1], the “% increase CD34+CD15− (%)” value amounted to 46.97%.

Turning to `O=c1cc(-c2ccc(O)cc2)oc2cc(O)cc(O)c12` [UM0118614, Apigenin], in the series with primary human AML cells [1], the “% increase CD34+ (%)” value worked out at 20.12%, the “% increase CD34+ (cell counts)” value is listed as 22.02%, the “% increase CD34+CD15− (cell counts)” value was 66.30% and the “% increase CD34+CD15− (%)” value is recorded as 63.93%.

For the compound `C[C@]12CCC(=O)C=C1CC[C@@H]1[C@@H]2CC[C@]2(C)C(=O)CC[C@@H]12` [UM0119559, 4-Androstene-3,17-dione], in the series on primary human AML cells [1], the “percent gated cells (viability)” value is 82.30%, the “% increase CD34+ (%)” value amounted to 1.57%, the “% increase CD34+ (cell counts)” value is −20.76% and the “% increase CD34+CD15− (cell counts)” value is 20.14%. In the series on primary human AML cells [1], the “% increase CD34+CD15− (%)” value amounted to 53.81%.

As for `COc1ccc(-c2cc(=O)c3ccc(O)cc3o2)cc1` [UM0117304, Pratol], in the series on primary human AML cells [1], the “percent gated cells (viability)” value is reported as 82.40%, the “% increase CD34+ (%)” value stood at 50.40%, the “% increase CD34+ (cell counts)” value is reported as 31.59% and the “% increase CD34+CD15− (cell counts)” value amounted to 47.36%. Besides, the “% increase CD34+CD15− (%)” value in the series with primary human AML cells [1] is reported as 68.85%.

Consider `COc1cc(-c2oc3cc(O)ccc3c(=O)c2O)ccc1O` [UM0119468, Geraldol], for which, in the series on primary human AML cells [1], the “percent gated cells (viability)” value is recorded as 78.50%, the “% increase CD34+ (%)” value was determined as 25.29%, the “% increase CD34+ (cell counts)” value is on record as −41.47% and the “% increase CD34+CD15− (cell counts)” value is on record as −23.14%. In the series with primary human AML cells [1], the “% increase CD34+CD15− (%)” value was found to be 64.06%.

As for `N[C@@H](Cc1c[nH]c2ccccc12)C(=O)O` [Tryptophan], the “CD34+CD15− cell counts compared to DMSO” value with primary human AML cells [1] was “further reduced”.

`CCOC(=O)c1c(C)cc(O)c(C)c1O` [UM0120789, Methylorsellinic acid ethyl ester]: in the series on primary human AML cells [1], the “percent gated cells (viability)” value is listed as 84.00%, the “% increase CD34+ (%)” value was 22.49%, the “% increase CD34+ (cell counts)” value stood at 22.38% and the “% increase CD34+CD15− (cell counts)” value was 52.88%. The “% increase CD34+CD15− (%)” value in the series on primary human AML cells [1] came out at 52.70%.

As to Verteporfin [UM0119121], in the series with primary human AML cells [1], the “% increase CD34+ (%)” value stood at 15.38%, the “% increase CD34+ (cell counts)” value is reported as 33.14%, the “% increase CD34+CD15− (cell counts)” value is 58.17% and the “% increase CD34+CD15− (%)” value turned out to be 37.29%.

On to `Oc1ccc(C=Cc2cc(O)cc(O)c2)cc1` [UM0118532, Resveratrol], for which, in the series on primary human AML cells [1], the “percent gated cells (viability)” value was determined as 78.00%, the “% increase CD34+ (%)” value turned out to be 22.62%, the “% increase CD34+ (cell counts)” value is recorded as −14.19% and the “% increase CD34+CD15− (cell counts)” value came to 12.57%. Besides, in the series on primary human AML cells [1], the “% increase CD34+CD15− (%)” value is 60.46%.

On to `Nc1ccccc1C(=O)CC(N)C(=O)O` (stereo not drawn) [Kynurenine], for which, in the series on primary human AML cells [1], the “CD34+CD15− cell counts compared to DMSO” value is listed as “further reduced”.

Turning to `COc1ccc(C2CC(=O)c3ccc(OC)cc3O2)cc1` (stereo not drawn) [UM0120851, Liquiritigenin dimethylether], in the series with primary human AML cells [1], the “percent gated cells (viability)” value is listed as 81.20%, the “% increase CD34+ (%)” value is recorded as 34.97%, the “% increase CD34+ (cell counts)” value stood at 31.66% and the “% increase CD34+CD15− (cell counts)” value turned out to be 59.21%. Besides, the “% increase CD34+CD15− (%)” value in the series on primary human AML cells [1] stood at 63.25%.

For `O=c1c2ccccc2oc2ccc(O)cc12` [UM0121186, 2-Hydroxyxanthone], in the series with primary human AML cells [1], the “percent gated cells (viability)” value was determined as 82.40%, the “% increase CD34+ (%)” value is on record as 48.93%, the “% increase CD34+ (cell counts)” value is 48.11% and the “% increase CD34+CD15− (cell counts)” value came out at 65.21%. In the series on primary human AML cells [1], the “% increase CD34+CD15− (%)” value was 66.25%.

`O.O.O=c1c(O)c(-c2ccc(O)c(O)c2)oc2cc(O)cc(O)c12` [UM0118473, Quercetine dihydrate]: in the series with primary human AML cells [1], the “% increase CD34+ (%)” value amounted to 15.71%, the “% increase CD34+ (cell counts)” value is listed as 6.69%, the “% increase CD34+CD15− (cell counts)” value was 69.64% and the “% increase CD34+CD15− (%)” value is given as 83.29%.

Consider `COc1cc(OC)c2c(=O)c(-c3ccc4c(c3)OCO4)coc2c1` [UM0121218, Derrustone], for which, in the series on primary human AML cells [1], the “percent gated cells (viability)” value is listed as 83.90%, the “% increase CD34+ (%)” value amounted to 21.91%, the “% increase CD34+ (cell counts)” value turned out to be 25.53% and the “% increase CD34+CD15− (cell counts)” value amounted to 58.63%. In addition, the “% increase CD34+CD15− (%)” value in the series on primary human AML cells [1] is 53.68%.
